Where a SMILES comes first, the peptide text is derived from it. [ ]: non-standard residue; d: D form. The star is where a group is joined. ξ: configuration not given here. Cha = N[C@@H](CC1CCCCC1)C(=O)O; ξCha = NC(CC1CCCCC1)C(=O)O; Isobutyryl = CC(C)C(=O)*; Aib = CC(C)(N)C(=O)O; Bz = O=C(c1ccccc1)*; ξAbu = CCC(N)C(=O)O
Columns and labels:
[1] = biological target: T1, Neuropeptide Y receptor type 2 (Homo sapiens, UniProt P49146); test: Displacement of [125I]-PYY from human Y2R expressed in CHO cell membranes after 60 mins by liquid scintillation method
T1 sequence (P49146 whole entry): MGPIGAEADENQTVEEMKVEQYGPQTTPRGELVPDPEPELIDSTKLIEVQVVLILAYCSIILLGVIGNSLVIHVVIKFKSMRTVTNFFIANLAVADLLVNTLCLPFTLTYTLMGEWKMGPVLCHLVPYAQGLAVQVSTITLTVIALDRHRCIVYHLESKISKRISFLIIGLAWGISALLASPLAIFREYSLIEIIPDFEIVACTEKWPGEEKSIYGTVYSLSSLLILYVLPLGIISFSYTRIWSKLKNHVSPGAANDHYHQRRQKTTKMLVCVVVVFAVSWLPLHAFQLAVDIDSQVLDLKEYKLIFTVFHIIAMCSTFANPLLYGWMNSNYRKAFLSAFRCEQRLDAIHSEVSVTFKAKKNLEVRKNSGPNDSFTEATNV

[2] = biological target: T1, Neuropeptide Y receptor type 2; test: Agonist activity at human Y2R expressed in CHO cell membranes assessed as [35S]GTPgammaS binding after 120 mins by liquid scintillation method; assay type: functional
Mus musculus = test: Antiobesity activity in lean C57BL/6J mouse assessed as inhibition of food intake at 1 mg/kg administered via subcutaneous osmotic pumps for 3 continuous days relative to control; details: sc

Compound	IC50 [1]	EC50 [2]	inhibition in vivo at 1 mg/kg (Mus musculus)
CCC(NC(=O)[C@H](CCCNC(=N)N)NC(=O)[C@H](CC(C)C)NC(C)=O)C(=O)NC(CC1CCCCC1)C(=O)NC(CC1CCCCC1)C(=O)N[C@@H](CC(N)=O)C(=O)N[C@@H](CC(C)C)C(=O)NC(C)(C)C(=O)N[C@H](C(=O)N[C@@H](CCCNC(=N)N)C(=O)N[C@@H](CCC(N)=O)C(=O)N[C@@H](CCCNC(=N)N)C(=O)NC(CC1CCCCC1)C(N)=O)[C@@H](C)O (stereo not given in full) (Ac-LR[ξAbu][ξCha][ξCha]NL[Aib]TRQR[ξCha]-NH2)	17 nM	6.4 nM	
CCC(NC(=O)[C@H](CCCNC(=N)N)NC(=O)c1ccccc1)C(=O)NC(CC1CCCCC1)C(=O)NC(CC1CCCCC1)C(=O)N[C@@H](CC(N)=O)C(=O)N[C@@H](CC(C)C)C(=O)NC(C)(C)C(=O)N[C@H](C(=O)N[C@@H](CCCNC(=N)N)C(=O)N[C@@H](CCC(N)=O)C(=O)N[C@@H](CCCNC(=N)N)C(=O)NC(CC1CCCCC1)C(N)=O)[C@@H](C)O (stereo not given in full) (Bz-R[ξAbu][ξCha][ξCha]NL[Aib]TRQR[ξCha]-NH2)	5.7 nM	4.6 nM	
CCC(NC(=O)[C@H](CCCNC(=N)N)NC(=O)[C@H](CC(C)C)NC(=O)[C@H](CO)NC(=O)[C@H](C)N)C(=O)NC(CC1CCCCC1)C(=O)NC(CC1CCCCC1)C(=O)N[C@@H](CC(N)=O)C(=O)N[C@@H](CC(C)C)C(=O)NC(C)(C)C(=O)N[C@H](C(=O)N[C@@H](CCCNC(=N)N)C(=O)N[C@@H](CCC(N)=O)C(=O)N[C@@H](CCCNC(=N)N)C(=O)NC(CC1CCCCC1)C(N)=O)[C@@H](C)O (stereo not given in full) (H-ASLR[ξAbu][ξCha][ξCha]NL[Aib]TRQR[ξCha]-NH2)	2.7 nM	2.5 nM	
CCC(NC(=O)[C@H](CCCNC(=N)N)NC(=O)[C@@H](CC(C)C)NC(=O)[C@@H](CO)NC(C)=O)C(=O)NC(CC1CCCCC1)C(=O)NC(CC1CCCCC1)C(=O)N[C@@H](CC(N)=O)C(=O)N[C@@H](CC(C)C)C(=O)NC(C)(C)C(=O)N[C@H](C(=O)N[C@@H](CCCNC(=N)N)C(=O)N[C@@H](CCC(N)=O)C(=O)N[C@@H](CCCNC(=N)N)C(=O)NC(CC1CCCCC1)C(N)=O)[C@@H](C)O (stereo not given in full)	23 nM	3.8 nM	
CC(=O)N[C@@H](CO)C(=O)NCC(=O)N[C@@H](CCCNC(=N)N)C(=O)N[C@@H](Cc1cnc[nH]1)C(=O)NC(CC1CCCCC1)C(=O)NC(CC1CCCCC1)C(=O)N[C@@H](CC(N)=O)C(=O)N[C@@H](CC(C)C)C(=O)NC(C)(C)C(=O)N[C@H](C(=O)N[C@@H](CCCNC(=N)N)C(=O)N[C@@H](CCC(N)=O)C(=O)N[C@@H](CCCNC(=N)N)C(=O)NC(CC1CCCCC1)C(N)=O)[C@@H](C)O (stereo not given in full) (Ac-SGRH[ξCha][ξCha]NL[Aib]TRQR[ξCha]-NH2)	4.8 nM	1.3 nM	
CC(=O)N[C@@H](CO)C(=O)N(C)[C@H](C)C(=O)N[C@@H](CCCNC(=N)N)C(=O)N[C@@H](Cc1cnc[nH]1)C(=O)NC(CC1CCCCC1)C(=O)NC(CC1CCCCC1)C(=O)N[C@@H](CC(N)=O)C(=O)N[C@@H](CC(C)C)C(=O)NC(C)(C)C(=O)N[C@H](C(=O)N[C@@H](CCCNC(=N)N)C(=O)N[C@@H](CCC(N)=O)C(=O)N[C@@H](CCCNC(=N)N)C(=O)NC(CC1CCCCC1)C(N)=O)[C@@H](C)O (stereo not given in full)	2.8 nM	0.59 nM	28%
CCC(NC(=O)[C@H](CCCNC(=N)N)NC(=O)[C@H](CC(C)C)NC(=O)[C@H](CO)NC(C)=O)C(=O)NC(CC1CCCCC1)C(=O)NC(CC1CCCCC1)C(=O)N[C@@H](CC(N)=O)C(=O)N[C@@H](CC(C)C)C(=O)NC(C)(C)C(=O)N[C@H](C(=O)N[C@@H](CCCNC(=N)N)C(=O)N[C@@H](CCC(N)=O)C(=O)N[C@@H](CCCNC(=N)N)C(=O)NC(CC1CCCCC1)C(N)=O)[C@@H](C)O (stereo not given in full)	8.8 nM	3 nM	
CCC(NC(=O)[C@H](CCCNC(=N)N)NC(=O)[C@H](CC(C)C)NC(=O)[C@H](CO)NC(=O)[C@H](C)NC(C)=O)C(=O)NC(CC1CCCCC1)C(=O)NC(CC1CCCCC1)C(=O)N[C@@H](CC(N)=O)C(=O)N[C@@H](CC(C)C)C(=O)NC(C)(C)C(=O)N[C@H](C(=O)N[C@@H](CCCNC(=N)N)C(=O)N[C@@H](CCC(N)=O)C(=O)N[C@@H](CCCNC(=N)N)C(=O)NC(CC1CCCCC1)C(N)=O)[C@@H](C)O (stereo not given in full) (Ac-ASLR[ξAbu][ξCha][ξCha]NL[Aib]TRQR[ξCha]-NH2)	6.8 nM	4.6 nM	
CC(C)C[C@H](NC(=O)[C@H](CO)NC(=O)[C@H](C)N)C(=O)N[C@@H](CCCNC(=N)N)C(=O)N[C@@H](Cc1cnc[nH]1)C(=O)N[C@@H](CC1CCCCC1)C(=O)N[C@@H](CC1CCCCC1)C(=O)N[C@@H](CC(N)=O)C(=O)N[C@@H](CC(C)C)C(=O)NC(C)(C)C(=O)N[C@H](C(=O)N[C@@H](CCCNC(=N)N)C(=O)N[C@@H](CCC(N)=O)C(=O)N[C@@H](CCCNC(=N)N)C(=O)N[C@@H](CC1CCCCC1)C(N)=O)[C@@H](C)O (H-ASLRH[Cha][Cha]NL[Aib]TRQR[Cha]-NH2)	1.7 nM	0.74 nM	

The next lines start with results.

IC50 [1]	EC50 [2]	Compound	inhibition in vivo at 1 mg/kg (Mus musculus)
7.3 nM	4.2 nM	CCC(NC(=O)[C@H](CCCNC(=N)N)NC(=O)C(C)C)C(=O)NC(CC1CCCCC1)C(=O)NC(CC1CCCCC1)C(=O)N[C@@H](CC(N)=O)C(=O)N[C@@H](CC(C)C)C(=O)NC(C)(C)C(=O)N[C@H](C(=O)N[C@@H](CCCNC(=N)N)C(=O)N[C@@H](CCC(N)=O)C(=O)N[C@@H](CCCNC(=N)N)C(=O)NC(CC1CCCCC1)C(N)=O)[C@@H](C)O (stereo not given in full) (Isobutyryl-R[ξAbu][ξCha][ξCha]NL[Aib]TRQR[ξCha]-NH2)	
12 nM	5.5 nM	CCC(NC(=O)[C@H](CCCNC(=N)N)NC(=O)[C@H](CC(C)C)NC(=O)[C@@H](CO)NC(C)=O)C(=O)NC(CC1CCCCC1)C(=O)NC(CC1CCCCC1)C(=O)N[C@@H](CC(N)=O)C(=O)N[C@@H](CC(C)C)C(=O)NC(C)(C)C(=O)N[C@H](C(=O)N[C@@H](CCCNC(=N)N)C(=O)N[C@@H](CCC(N)=O)C(=O)N[C@@H](CCCNC(=N)N)C(=O)NC(CC1CCCCC1)C(N)=O)[C@@H](C)O (stereo not given in full)	
1.5 nM	0.61 nM	CC(=O)N[C@@H](CO)C(=O)N1CCC[C@@H]1C(=O)N[C@@H](CCCNC(=N)N)C(=O)N[C@@H](Cc1cnc[nH]1)C(=O)NC(CC1CCCCC1)C(=O)NC(CC1CCCCC1)C(=O)N[C@@H](CC(N)=O)C(=O)N[C@@H](CC(C)C)C(=O)NC(C)(C)C(=O)N[C@H](C(=O)N[C@@H](CCCNC(=N)N)C(=O)N[C@@H](CCC(N)=O)C(=O)N[C@@H](CCCNC(=N)N)C(=O)NC(CC1CCCCC1)C(N)=O)[C@@H](C)O (stereo not given in full)	33%
11 nM	1.3 nM	CCC(NC(=O)[C@H](CCCNC(=N)N)NC(=O)[C@@H](CC(C)C)NC(=O)[C@H](CO)NC(C)=O)C(=O)NC(CC1CCCCC1)C(=O)NC(CC1CCCCC1)C(=O)N[C@@H](CC(N)=O)C(=O)N[C@@H](CC(C)C)C(=O)NC(C)(C)C(=O)N[C@H](C(=O)N[C@@H](CCCNC(=N)N)C(=O)N[C@@H](CCC(N)=O)C(=O)N[C@@H](CCCNC(=N)N)C(=O)NC(CC1CCCCC1)C(N)=O)[C@@H](C)O (stereo not given in full)	
5.4 nM	1.2 nM	CC(=O)N[C@@H](CO)C(=O)N(C)[C@@H](C)C(=O)N[C@@H](CCCNC(=N)N)C(=O)N[C@@H](Cc1cnc[nH]1)C(=O)NC(CC1CCCCC1)C(=O)NC(CC1CCCCC1)C(=O)N[C@@H](CC(N)=O)C(=O)N[C@@H](CC(C)C)C(=O)NC(C)(C)C(=O)N[C@H](C(=O)N[C@@H](CCCNC(=N)N)C(=O)N[C@@H](CCC(N)=O)C(=O)N[C@@H](CCCNC(=N)N)C(=O)NC(CC1CCCCC1)C(N)=O)[C@@H](C)O (stereo not given in full)	
